Entries after “also recorded” stand apart in the source; their conditions may differ.
What was measured:
native Ste2 receptor [1] = target: T1, native Ste2 receptor (Saccharomyces cerevisiae, UniProt D6VTK4, A176T/D201G/D370N/S34T); conditions: physiological concentrations; previous literature; cited from earlier work
T1 construct: contains yeast Sterile2 (Ste2) receptor between the constitutive GPD promoter and the CYC1 terminator; expressed in transfected cells; host or cells: S. cerevisiae MPY578t5 derivatives (native STE2 removed), plasmid pJB036
T1 sequence (D6VTK4 whole entry S34T/A176T/D201G/D370N): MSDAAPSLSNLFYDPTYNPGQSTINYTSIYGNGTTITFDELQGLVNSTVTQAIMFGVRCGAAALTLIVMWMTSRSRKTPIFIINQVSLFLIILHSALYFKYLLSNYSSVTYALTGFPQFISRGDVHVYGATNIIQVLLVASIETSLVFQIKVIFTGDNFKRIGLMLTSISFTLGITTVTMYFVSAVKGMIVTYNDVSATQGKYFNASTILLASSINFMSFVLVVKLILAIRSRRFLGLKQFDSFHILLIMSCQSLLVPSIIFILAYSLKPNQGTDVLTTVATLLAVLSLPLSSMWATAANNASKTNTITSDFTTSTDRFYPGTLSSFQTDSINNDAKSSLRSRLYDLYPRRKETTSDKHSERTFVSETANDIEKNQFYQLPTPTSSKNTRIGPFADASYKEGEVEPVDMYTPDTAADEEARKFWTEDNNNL

[2] = target: Mutant receptors (RecCys1); assay: Dose response of mutant receptors evolved for cystatin chimera Cys1; type: cell-based, Saccharomyces cerevisiae; conditions: FIG. 9a
Excerpt: (§1) Receptor activation was coupled to green fluorescent protein (GFP) expression by cloning GFP downstream of the Ste2p-activated FUS1 promoter. Therefore a receptor mutant that is successfully activated by the POI will result in the cell fluorescing green. The discriminating power of the screen is improved by including an internal control, constitutive expression of mKate (a red fluorescent protein). Red fluorescence corresponds to cell size, and allows us to normalize the GFP measurement for more accurate sorting. […] The initial HTS has false positive (FP) rates of 20% and false negative (FN) rates of 10%. The FP and FN rate is overcome by doing multiple rounds of enrichment. In four rounds of enrichment, a population of cells is isolated that originally was 1 in 10^6.
(§2) Initial attempts to evolve directly for the cystatin/GSS peptides were unsuccessful. To take smaller evolutionary steps, chimera peptides were designed that were more similar to α-factor. Receptors were evolved to recognize peptide that contain several changes in the peptide sequence (FIG. 9a-c).

Mutant receptor RecGssB = assay: Dose response of mutant receptors evolved for GSS chimera GssB; type: cell-based, Saccharomyces cerevisiae
Excerpt: as §1, §2

[3] = test system: evolved cystatin receptor; type: cell-based, Saccharomyces cerevisiae
native Ste2 receptor [4] = target: T1, native Ste2 receptor; assay: GFP/RFP reporter dose response in yeast expressing the native Ste2 receptor; type: cell-based; conditions: compared to the native ligand
[5] = test system: re-mutagenized mutant Ste2 receptor library; assay: Screen of library made by re-mutagenizing a Variant 56-sensitive mutant receptor; type: cell-based, Saccharomyces cerevisiae; conditions: FIG. 7a
Excerpt: Specificity can be increased with iterative selection and counter-selection (FIG. 7b). […] Round 2 library mutants were also screened for lack of activity for α-factor, confirming the evolution of receptors for specificity against α-factor (FIG. 7c).

[6] = target: mutant Ste2 receptors isolated for Variant 56; assay: GFP/RFP reporter dose response, mutants isolated for sensitivity to ligand Variant 56
[7] = target: Mutant 56.5 (mutant Ste2 receptor); assay: GFP/RFP reporter dose response, isolated mutant receptor Mutant 56.5; conditions: alpha factor on Mutant 56.5, compared with native Ste2; FIG. 4B
[8] = test system: evolved receptors (from Ste2p); assay: Sensitivity enhancement dose response of evolved receptors; type: cell-based, Saccharomyces cerevisiae; conditions: FIG. 11
[9] = target: Mutant 44.1 (mutant Ste2 receptor); assay: GFP/RFP reporter dose response, isolated mutant receptor Mutant 44.1; conditions: alpha factor on Mutant 44.1, compared with native Ste2; FIG. 3B
[10] = target: Mutant receptors derived from RecCys1 mutagenesis; assay: Dose response of mutant receptors evolved for cystatin chimera Cys2; type: cell-based, Saccharomyces cerevisiae; conditions: FIG. 9b
Excerpt: as §1, §2
Receptors have been successfully evolved for some chimeras. Two steps have been completed for cystatin (evolving for Cys1 and then using that receptor as a parent to evolve for Cys2) and one step for GSS.

## WAWLQLKPGQPMY
Native Ste2 receptor [1]
  response of Ste2 to the ligand: very low response, if any

## HALALKPGEPMY [Cys1]
[2]
  EC50 relative to RecSte2p: lower

## WHWLQLKPGEPLYGR [GssB]
Mutant receptor RecGssB; FIG. 9c
  EC50 relative to RecSte2p: lower

## ALDFAVGEYNK (listed as Cystatin chimera) [Cys5]
[3]; FIG. 13B
  response of evolved cystatin receptor: rises in response
[3]; FIG. 14A-C
  response of receptor mutants evolved from Ste2p (dose response curve): respond

## WHYLQLKPGQPMY [Variant 56]
Native Ste2 receptor [4]
  activity of the native Ste2 receptor for the ligand: little activity
[5]
  activity of new library after second round of mutagenesis: increased activity
Native Ste2 receptor [1]
  response of Ste2 to the ligand: very low response, if any
[6]; all five isolated mutants, FIG. 4A, FIG. 5
  EC50 relative to Ste2: significantly lower

## WHWLQLKPGQPMY [α-factor]
[7]
  EC50 relative to Ste2: significantly higher
[6]; FIG. 4B
  activity of isolated mutants for the native pheromone: maintained some activity
[8]
  concentration at which evolved receptors respond, relative to wild type/Ste2p receptor: concentrations lower than the wild type
Mutant receptor RecGssB; FIG. 9d
  response of evolved receptor to the native ligand: do not respond; also recorded: no longer responds
[9]
  EC50 relative to Ste2: significantly higher

## LRLLALKPGQPLYGR [Gss1]
Mutant receptor RecGssB; receptors carrying mutations that enhance the response to GssB
  effect of GssB-enhancing receptor mutations on response: enhance response

## ALALKPGEPMY [Cys2]
[10]
  EC50 relative to RecSte2p: lower

Source: US10690661B2, “Yeast-based biosensor” (priority 2014, dated 2020)
